Structures can show the parent of a compound that is named as a salt.
These compounds were tested against T1, ORL1 receptor (Homo sapiens, UniProt P41146) (assay: ORL1 receptor binding assay using 3H-nociceptin/orphanin FQ with membranes of recombinant CHO-ORL1 cells). Details: 3H-nociceptin/orphanin FQ 0.5 nM, WGA-SPA beads, one hour at room temperature.
T1 construct: expressed in transfected cells; host or cells: CHO (recombinant CHO-ORL1 cells), membranes
Procedure: The 4-amino-1-phenylbutan-2-ol compounds of the general formula I have been studied in a receptor binding assay using ^3H-nociceptin/orphanin FQ with membranes of recombinant CHO-ORL1 cells. That test system was carried out according to the method put forward by Ardati et al. (Mol. Pharmacol., 51, 1997, p. 816–824). The concentration of ^3H-nociceptin/orphanin FQ in those tests was 0.5 nM. The binding assays were carried out using in each case 20 μg of membrane protein per 200 μl batch in 50 mM Hepes, pH 7.4, 10 mM MgCl2 and 1 mM EDTA. Binding to the ORL1 receptor was determined using in each case 1 mg of WGA-SPA beads (Amersham-Pharmacia, Freiburg) by incubation of the batch for one hour at room temperature and subsequent measurement in a Trilux scintillation counter (Wallac, Finland). The affinity is given as the Ki value.
For each of the compounds of Examples 1 to 7, the affinity for the ORL1 receptor was determined according to the mentioned molecular-pharmacological investigations.

T1 sequence (P41146 whole entry): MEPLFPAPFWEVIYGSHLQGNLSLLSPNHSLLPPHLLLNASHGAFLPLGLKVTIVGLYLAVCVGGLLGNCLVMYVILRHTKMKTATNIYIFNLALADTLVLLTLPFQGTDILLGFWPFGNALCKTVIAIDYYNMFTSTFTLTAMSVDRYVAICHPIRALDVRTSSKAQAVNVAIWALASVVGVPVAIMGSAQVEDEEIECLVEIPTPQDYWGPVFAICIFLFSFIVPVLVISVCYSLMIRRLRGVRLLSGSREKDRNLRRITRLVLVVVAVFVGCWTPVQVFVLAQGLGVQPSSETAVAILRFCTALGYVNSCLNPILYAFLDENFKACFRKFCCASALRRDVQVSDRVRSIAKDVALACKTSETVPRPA

Compound	Ki [nM]
CN(C)C(c1ccccc1)C1CCCCC1(O)Cc1cccc(C(F)(F)F)c1 (stereo not shown) [Example 5, 2-(dimethylaminophenylmethyl)-1-(3-trifluoromethylbenzyl)cyclohexanol hydrochloride]	900
CN(C)C(c1ccccc1)C1CCCCC1(O)Cc1cccc(Cl)c1 (stereo not shown) [Example 2, 1-(3-chlorobenzyl)-2-(dimethylaminophenylmethyl)cyclohexanol hydrochloride]	2100
CN(C)C(c1ccccc1)C1CCCCC1(O)Cc1ccccc1Cl (stereo not shown) [Example 1, 1-(2-Chlorobenzyl)-2-(dimethylaminophenylmethyl)cyclohexanol hydrochloride]	6000
CN(C)C(c1ccsc1)C1CCCCC1(O)Cc1cccc(C(F)(F)F)c1 (stereo not shown) [Example 7, 2-(dimethylaminothiophen-3-ylmethyl)-1-(3-trifluoromethylbenzyl)cyclohexanol hydrochloride]	330
CN(C)C(c1ccccc1)C1CCCCC1(O)Cc1ccc(F)c(F)c1 (stereo not shown) [Example 4, 1-(3,4-difluorobenzyl)-2-(dimethylaminophenylmethyl)cyclohexanol hydrochloride]	1900
CN(C)C(c1cccs1)C1CCCCC1(O)Cc1cccc(C(F)(F)F)c1 (stereo not shown) [Example 6, 2-(dimethylaminothiophen-2-ylmethyl)-1-(3-trifluoromethylbenzyl)cyclohexanol Hydrochloride]	600
CN(C)C(c1ccccc1)C1CCCCC1(O)Cc1ccc(Cl)cc1 (stereo not shown) [Example 3, 1-(4-chlorobenzyl)-2-(dimethylaminophenylmethyl)-1-cyclohexanol hydrochloride]	1700

— patent US7012099B2, “Use of substituted 4-amino-1-phenylbutan-2-ol compounds as medicaments” (Gruenenthal GmbH, priority 1999, dated 2006)
